Results taken from ChEMBL document CHEMBL2346598, “Synthesis and pharmacological characterization of 2-(acylamino)thiophene derivatives as metabolically stable, orally effective, positive allosteric modulators of the GABAB receptor” (J Med Chem, 2013).
Activity calls are given as the source filed them. No cut-off for these calls is given here.

Key:
Mus musculus [1] = test: Hypnotic effect in DBA mouse assessed as increase in pentobarbital-induced duration of loss of righting reflex at 30 mg/kg, ip incubated for 30 mins prior to pentobarbital-challenge; format: functional; conditions: route intraperitoneal
Mus musculus [2] = test: Hypnotic effect in DBA mouse assessed as reduction in pentobarbital-induced onset of loss of righting reflex at 30 mg/kg, ip incubated for 30 mins prior to pentobarbital-challenge (reference value: 60.0 +/- 0.0 min); format: functional; conditions: route intraperitoneal
Mus musculus [3] = test: Hypnotic effect in DBA mouse assessed as potentiation of baclofen-induced loss of righting reflex at 1 mg/kg, ip incubated for 30 mins prior to baclofen-challenge; format: functional, organism-based; design: dose 1 mg/kg
Mus musculus [4] = test: Hypnotic effect in ip dosed DBA mouse assessed as increase in baclofen-induced duration of loss of righting reflex incubated for 30 mins prior to baclofen-challenge; format: functional, organism-based
Mus musculus [5] = test: Hypnotic effect in DBA mouse assessed as potentiation of pentobarbital-induced loss of righting reflex at 300 mg/kg, ip incubated for 30 mins prior to pentobarbital-challenge; format: functional, organism-based; design: dose 300 mg/kg
Mus musculus [6] = test: Hypnotic effect in DBA mouse assessed as potentiation of baclofen-induced loss of righting reflex at 100 mg/kg, ip incubated for 30 mins prior to baclofen-challenge; format: functional, organism-based; design: dose 100 mg/kg
Rattus norvegicus [7] = species: Rattus norvegicus; test: Positive allosteric modulation of GABAB receptor in rat cortical membranes assessed as potentiation of GABA-induced [35S]GTPgammaS binding at 30 uM after 30 mins by liquid scintillation counting analysis relative to GABA; format: functional, cell membranes; conditions: Membrane
[8] = (§1) Positive allosteric modulation of GABAB receptor in rat cortical membranes assessed as potentiation of GABA-induced [35S]GTPgammaS binding after 30 mins by liquid scintillation counting analysis; format: functional, cell membranes, Membrane
[9] = Intrinsic clearance in mouse liver microsomes assessed per mg protein at 5 uM after 60 mins by LC/MS/MS analysis; format: ADME, Microsome; conditions: read-out: CLH
Mus musculus [10] = test: Hypnotic effect in DBA mouse assessed as increase in baclofen-induced duration of loss of righting reflex over 10 mg/kg, ip incubated for 30 mins prior to baclofen-challenge relative to vehicle-treated control; format: functional, organism-based; design: dose 10 mg/kg
Mus musculus [11] = test: Hypnotic effect in DBA mouse assessed as potentiation of baclofen-induced loss of righting reflex at 30 mg/kg, ip incubated for 30 mins prior to baclofen-challenge; format: functional, organism-based; design: dose 30 mg/kg
Mus musculus [12] = test: Hypnotic effect in DBA mouse assessed as potentiation of baclofen-induced loss of righting reflex at 10 mg/kg, ip incubated for 30 mins prior to baclofen-challenge; format: functional, organism-based; design: dose 10 mg/kg
Mus musculus [13] = test: Hypnotic effect in DBA mouse assessed as increase in baclofen-induced duration of loss of righting reflex at 300 mg/kg, ig incubated for 30 mins prior to baclofen-challenge relative to vehicle-treated control; format: functional, organism-based; design: dose 300 mg/kg
Mus musculus [14] = test: Hypnotic effect in DBA mouse assessed as potentiation of baclofen-induced loss of righting reflex at 3 mg/kg, ip incubated for 30 mins prior to baclofen-challenge; format: functional, organism-based; design: dose 3 mg/kg
Rattus norvegicus [15] = species: Rattus norvegicus; test: Positive allosteric modulation of GABAB receptor in rat cortical membranes assessed as potentiation of GABA-induced [35S]GTPgammaS binding at 25 uM after 30 mins by liquid scintillation counting analysis relative to GABA; format: functional, cell membranes; conditions: Membrane
Mus musculus [16] = test: Hypnotic effect in DBA mouse assessed as potentiation of baclofen-induced loss of righting reflex at 300 mg/kg, ip incubated for 30 mins prior to baclofen-challenge; format: functional, organism-based; design: dose 300 mg/kg
Rattus norvegicus [17] = species: Rattus norvegicus; test: Positive allosteric modulation of GABAB receptor in rat cortical membranes assessed as stimulation of [35S]GTPgammaS binding up to 100 uM after 30 mins by liquid scintillation counting analysis; format: functional, cell membranes; conditions: Membrane
Mus musculus [18] = test: Hypnotic effect in DBA mouse assessed as potentiation of pentobarbital-induced loss of righting reflex at 100 mg/kg, ip incubated for 30 mins prior to pentobarbital-challenge; format: functional, organism-based; design: dose 100 mg/kg
Mus musculus [19] = test: Hypnotic effect in DBA mouse assessed as reduction in baclofen-induced onset of loss of righting reflex over 10 mg/kg, ip incubated for 30 mins prior to baclofen-challenge relative to vehicle-treated control; format: functional, organism-based; design: dose 10 mg/kg
Mus musculus [20] = test: Hypnotic effect in DBA mouse assessed as increase in pentobarbital-induced duration of loss of righting reflex at 100 mg/kg, ip incubated for 30 mins prior to pentobarbital-challenge; format: functional; conditions: route intraperitoneal
NIH3T3 = test: Cytotoxicity against mouse NIH/3T3 cells after 24 hrs by neutral red staining-based UV/visible spectrophotometric analysis; format: cell-based; conditions: NIH3T3, 24 h
Rattus norvegicus [21] = species: Rattus norvegicus; test: Positive allosteric modulation of GABAB receptor in rat cortical membranes assessed as potentiation of GABA-induced [35S]GTPgammaS binding at 2.5 uM after 30 mins by liquid scintillation counting analysis relative to GABA; format: functional, cell membranes; conditions: Membrane
Mus musculus [22] = test: Hypnotic effect in DBA mouse assessed as reduction in pentobarbital-induced onset of loss of righting reflex at 300 mg/kg, ip incubated for 30 mins prior to pentobarbital-challenge (reference value: 60.0 +/- 0.0 min); format: functional; conditions: route intraperitoneal
Mus musculus [23] = test: Hypnotic effect in DBA mouse assessed as reduction in baclofen-induced onset of loss of righting reflex at 300 mg/kg, ig incubated for 30 mins prior to baclofen-challenge relative to vehicle-treated control; format: functional, organism-based; design: dose 300 mg/kg
[24] = Elimination rate constant in mouse liver microsomes at 5 uM after 60 mins by LC/MS/MS analysis; format: ADME, Microsome
Mus musculus [25] = test: Hypnotic effect in DBA mouse assessed as potentiation of pentobarbital-induced loss of righting reflex at 30 mg/kg, ip incubated for 30 mins prior to pentobarbital-challenge; format: functional, organism-based; design: dose 30 mg/kg
Mus musculus [26] = test: Hypnotic effect in ip dosed DBA mouse assessed as reduction in baclofen-induced onset of loss of righting reflex incubated 30 mins prior to baclofen-challenge; format: functional, organism-based
Mus musculus [27] = test: Hypnotic effect in DBA mouse assessed as potentiation of baclofen-induced loss of righting reflex at 300 mg/kg, ig incubated for 30 mins prior to baclofen-challenge; format: functional, organism-based; design: dose 300 mg/kg
Plasma = test: Metabolic stability in mouse plasma at 5 uM after 30 mins by HPLC-MS analysis; format: ADME, cell-free; conditions: 0.5 h
Mus musculus [28] = test: Hypnotic effect in DBA mouse assessed as increase in pentobarbital-induced duration of loss of righting reflex at 300 mg/kg, ip incubated for 30 mins prior to pentobarbital-challenge; format: functional; conditions: route intraperitoneal
Mus musculus [29] = test: Hypnotic effect in DBA mouse assessed as reduction in pentobarbital-induced onset of loss of righting reflex at 100 mg/kg, ip incubated for 30 mins prior to pentobarbital-challenge (reference value: 60.0 +/- 0.0 min); format: functional; conditions: route intraperitoneal
[30] = Drug metabolism in mouse liver microsomes at 5 uM after 60 mins by LC/MS/MS analysis; format: ADME, Microsome; conditions: read-out: Drug metabolism
Rattus norvegicus [31] = species: Rattus norvegicus; test: as §1; format: functional, cell membranes; conditions: Membrane
Mus musculus [32] = test: Hypnotic effect in DBA mouse assessed as reduction in baclofen-induced onset of loss of righting reflex at 100 to 300 mg/kg, ip incubated for 30 mins prior to baclofen-challenge relative to vehicle-treated control; format: functional, organism-based
Mus musculus [33] = test: Hypnotic effect in DBA mouse assessed as increase in baclofen-induced duration of loss of righting reflex at 100 to 300 mg/kg, ip incubated for 30 mins prior to baclofen-challenge relative to vehicle-treated control; format: functional, organism-based
Mus musculus [34] = test: Hypnotic effect in DBA mouse assessed as increase in baclofen-induced duration of loss of righting reflex over 3 mg/kg, ip incubated for 30 mins prior to baclofen-challenge relative to vehicle-treated control; format: functional, organism-based; design: dose 3 mg/kg
Mus musculus [35] = test: Hypnotic effect in ip dosed DBA mouse assessed as potentiation of pentobarbital-induced loss of righting reflex incubated for 30 mins prior to pentobarbital-challenge; format: functional, organism-based
Mus musculus [36] = test: Hypnotic effect in DBA mouse assessed as reduction in baclofen-induced onset of loss of righting reflex over 1 mg/kg, ip incubated for 30 mins prior to baclofen-challenge relative to vehicle-treated control; format: functional, organism-based; design: dose 1 mg/kg
[37] = Ratio of compound IC50 to COR628 IC50 for mouse NIH/3T3 cells; format: ADME, cell-based, NIH3T3; conditions: read-out: Ratio IC50
[38] = Ratio of compound IC50 to COR627 IC50 for mouse NIH/3T3 cells; format: ADME, cell-based, NIH3T3; conditions: read-out: Ratio IC50
Mus musculus [39] = test: Hypnotic effect in DBA mouse assessed as increase in baclofen-induced duration of loss of righting reflex over 30 mg/kg, ip incubated for 30 mins prior to baclofen-challenge relative to vehicle-treated control; format: functional, organism-based; design: dose 30 mg/kg

microsomal CLint at 5 µM [9] [µL/min/mg]	Activity (Rattus norvegicus [15]) [%]	Activity (Rattus norvegicus [17])	Activity (Rattus norvegicus [21]) [%]	k el at 1 h, 5 µM [24] [s⁻¹]	Stability (Plasma)	metabolised at 1 h, 5 µM [30] [%]	SMILES	Time (Mus musculus [1]) [min]	Activity (Mus musculus [3])	Activity (Mus musculus [4])	Activity (Mus musculus [6])	Activity (Mus musculus [11])	Activity (Mus musculus [12])	Activity (Mus musculus [13])	Activity (Mus musculus [14])	Activity (Mus musculus [16])	IC50 (NIH3T3) [µM]	Activity (Mus musculus [23])	Activity (Mus musculus [26])	Activity (Mus musculus [27])	also measured
7.9	18.3	inactive	9.2	0.000127	Unstable	28	CCc1c(C)sc(NC(=O)c2ccc(Cl)cc2)c1C(=O)OC	0	Active	Dose-dependent effect	Active	Active	Active	Active	Active	Active	59	Active	Dose-dependent effect	Active	Time (Mus musculus [2]): 60 min; Activity (Mus musculus [5]): Active; Emax (Rattus norvegicus [7]): 51%; EC50 [8]: 1.11 µM; Activity (Mus musculus [10]): Active; Activity (Mus musculus [18]): inactive; Activity (Mus musculus [19]): Active; Time (Mus musculus [20]): 4.8 min; Time (Mus musculus [22]): 45.8 min; Activity (Mus musculus [25]): inactive; Time (Mus musculus [28]): 7.3 min; Time (Mus musculus [29]): 51.8 min
7.73	18.2	inactive	3.7	0.000124	Unstable	28	CCc1c(C)sc(NC(=O)c2ccc(C)cc2)c1C(=O)OC	4.7	inactive	Dose-dependent effect	Active	Active	Active	Active	Active	Active	95	Active	Dose-dependent effect	Active	Time (Mus musculus [2]): 53.3 min; Activity (Mus musculus [5]): Active; Activity (Rattus norvegicus [31]): inactive; Activity (Mus musculus [18]): inactive; Activity (Mus musculus [32]): Active; Time (Mus musculus [20]): 11.2 min; Activity (Mus musculus [33]): Active; Time (Mus musculus [22]): 26.7 min; Activity (Mus musculus [25]): inactive; Time (Mus musculus [28]): 14 min; Time (Mus musculus [29]): 43.8 min
12	27.3	inactive	17.8	0.000192	Unstable	40	CCc1c(C)sc(NC(=O)c2ccc(C(F)(F)F)cc2)c1C(=O)OC	2.3	Active	Dose-dependent effect	Active	Active	Active	Active	Active	Active	54	Active	Dose-dependent effect	Active	Time (Mus musculus [2]): 54 min; Activity (Mus musculus [5]): Active; Emax (Rattus norvegicus [7]): 60%; Activity (Mus musculus [34]): Active; EC50 [8]: 0.28 µM; Activity (Mus musculus [18]): inactive; Activity (Mus musculus [19]): Active; Time (Mus musculus [20]): 7 min; Time (Mus musculus [22]): 31.3 min; Activity (Mus musculus [35]): Dose-dependent effect; Activity (Mus musculus [25]): inactive; Time (Mus musculus [28]): 23.3 min; Time (Mus musculus [29]): 45.2 min
8.98	23.2	inactive	19	0.000144	Unstable	32	CCc1c(C)sc(NC(=O)c2ccc(C(C)(C)C)cc2)c1C(=O)OC		Active	Dose-dependent effect	Active	Active	Active	Active	Active	Active	140	Active	Dose-dependent effect	Active	Activity (Rattus norvegicus [31]): inactive; Activity (Mus musculus [36]): Active; selectivity ratio [37]: 4; selectivity ratio [38]: 4; Activity (Mus musculus [39]): Active
